Test results: patent publication US9840470B2, “Targeting GLI proteins in human cancer by small molecules” (The Regents of the University of California, priority 2013, dated 2017)

Assays:
melanoma MelJuso = test: In vivo efficacy, mouse xenograft model (melanoma MelJuso); conditions: for tumor growth: 50 mg/kg body weight i.p. daily for 14 days, from 13 days after inoculation; for tumor weight (FIG. 1): melanoma MelJuso xenograft, after treatment
Experimental: (§1) The administered compounds were tested in vivo in the mouse xenograft model bearing human cancer cells. Briefly, female athymic nude mice strain NCRNU-M (5-10 weeks old, 20-25 grams in weight; Taconic, Germantown, N.Y.) was maintained in pathogen-free conditions. Three human cancer cell lines: NSCLC A549, melanoma MelJuso, and mesothelioma MS-1 were used. Five or ten mice were used in each group and injected s.c. with 3×10^6 cancer cells in the dorsal area in a volume of 100 μl. After inoculation, human cancer cells were allowed to grow in mice for 10-13 days to become visible tumor nodules. Animals were then injected with a compound of the embodiments at a dose of 50 mg/kg body weight (1 mg/mouse per day). Vehicle alone was used as control. The compounds and controls were adjusted in 40 ul volume for i.p. injection in the abdomens of the mice. Injections were performed daily around the same time for 14 days. Tumors were allowed to grow for 1-2 additional weeks after completion of the compound treatments. Tumor size was measured every three to four days, and tumor volumes were calculated using width (x) and length (y) (x^2y/2, where x<y). Throughout this period, general toxicity of the treatments was also monitored by measuring body weight of the mice. Data was presented as mean values (±S.D.).
In vivo efficacy study of Compounds 1, 2, 4, and 6 were performed using a Mouse Xenograft Model (Melanoma MelJuso). Mice were injected s.c. with 3×10^6 cells in the dorsal area in a volume of 100 μl. 13 days after inoculation, the mice started receiving treatments with the administered compound at a dose of 50 mg/kg body weight daily for 14 days (n=10). Vehicle alone was used as control (n=10). The administered compounds and vehicle were adjusted in a volume of 40 μl for i.p. injection in the abdomens of the mice. Tumor size and tumor volumes were calculated as described above.

[1] = Preliminary in vivo toxicity: leukocyte population and body weight after treatment; set-up: species or system mouse; conditions: for changes of leukocyte population: at completion of the in vivo studies; for loss of body weight: during the course of drug administration
Experimental: as §1
(§2) After the in vivo studies were completed, different organs were resected from mice. These organs included liver, lung, heart, kidney, intestines, ovary, brain, spleen, skin, and muscle. The specimens were fixed in 4% buffered formaldehyde, embedded in paraffin, sectioned, and histologically analyzed by hematoxylin and eosin (HE) staining. The HE stained slides were examined by a mouse pathologist for toxicity evidence from all the organs as compared with vehicle controls. In addition, leukocytes (WBC: white blood cell, NE: neutrophil, LY: lymphocyte, MO: monocyte, EO: eosinophil, BA: basophil) from each animal from all treatment groups were collected and leukocyte population was counted through a blood cell counter.
(§3) As preliminary in vivo toxicity study of Compounds 1, 2, 4, and 6, it was examined if there were changes of leukocyte population and loss of body weight in the mice after the treatment. At the completion of the in vivo studies as described herein, leukocytes (WBC: white blood cell, NE: neutrophil, LY: lymphocyte, MO: monocyte, EO: eosinophil, BA: basophil) from each animal from all treatment groups were collected and leukocyte population was counted through a blood cell counter. Body weights of control groups (n=10) and the treated group (n=10) were measured using a scale during the course of drug administration. […] In an additional toxicity study, effect of different doses of compounds 4 and 6 on the body weight of mice was examined. The compounds were i.p. injected in the abdomens at 3 different doses: 25, 50, and 100 mg/kg body weight to mice (3 mice per dosing group) for 6 consecutive days.

[2] = Histological (H&E) examination of mouse organs for toxicity; format: in vivo; conditions: i.p. two doses daily for 6 days; liver, spleen, kidney, heart
Description: as §2
To analyze toxicity of the Compounds 1, 2, 4, and 6 in vivo, each group (three mice) was i.p. injected with two doses of each Compound daily for 6 days, and then major mouse organs, such as liver, spleen, kidney, and heart were resected from the mice.

mesothelioma MS-1 = test: In vivo efficacy, mouse xenograft model (mesothelioma MS-1); conditions: 50 mg/kg body weight i.p. daily for 14 days, from ten days after inoculation
Experimental: as §1, with “Tumors were allowed to grow for 1-2 additional weeks after completion of the compound treatments.” left out, “Data was presented as mean values (±S.D.).” left out
In vivo efficacy study of Compounds 1 and 4 were performed using a Mouse Xenograft Model (Mesothelioma MS-1). […] Tumor sizes was measured twice weekly until the completion of the experiments. […]

Wnt signaling pathway = test: Quantitative RT-PCR of canonical Wnt pathway genes in xenograft tumors; format: in vivo, mouse; conditions: Melanoma tumor, pooled tumor from two mice, compared to controls
Experimental: (§4) Total RNA was isolated using Qiagen RNeasy Mini Kit (Valencia, Calif.). Hybridization probes and primers (Table 1) were purchased from Applied Biosystems (ABI, Foster City, Calif.). cDNA synthesis and Taqman® PCR were performed according to the manufactures' protocols. The gene expression was assayed in triplicate in ABI 7300 Real-time PCR System. Samples were normalized to their housekeeping gene GAPDH and then calculated by using 2^−dct method.
To examine whether Compounds 1, 2, 4, and 6 suppressed tumor growth through inhibition of the Wnt signaling pathway in vivo, expression of the key components and direct target genes of the Wnt pathway (e.g. Wnt2, Axin2, EGFR, and Cyclin D1) were analyzed by quantitative real-time RT-PCR using total RNA isolated from the xenograft tumors. GAPDH served as a control. This RT-PCR analysis was performed using a “pooled” tumor from two randomly selected mice of each group with reasonable size tumors. […] The results are shown in FIG. 4, where C is control and V is vehicle.

[3] = system: Hedgehog signaling pathway; test: Quantitative RT-PCR of Hh pathway genes in xenograft tumors; format: in vivo, mouse; conditions: Melanoma tumor (MelJuso), pooled tumor from two mice
Experimental: as §4
To examine whether Compounds 1, 2, 4, and 6 suppressed tumor growth through inhibition of the Hedgehog signaling pathway in vivo, expression of the key components and direct target genes of the Hh pathway (e.g. Gli1, Gli2, Gli3, HHIP and Cyclin D1) were analyzed by quantitative real-time RT-PCR using total RNA isolated from the xenograft tumors. GAPDH served as a control. This RT-PCR analysis was performed using a “pooled” tumor from two randomly selected mice of each group with reasonable size tumors. […] The results are shown in FIG. 4, where C is control and V is vehicle.

NSCLC A549 = test: In vivo efficacy, mouse xenograft model (lung cancer A549); conditions: 50 mg/kg i.p. daily for 14 days, then 50 mg/kg daily for 1x7 days; tumors weighed 43 days after inoculation
Experimental: as §1, with “Tumors were allowed to grow for 1-2 additional weeks after completion of the compound treatments.” left out, “Data was presented as mean values (±S.D.).” left out
In vivo efficacy study of Compounds 1 and 4 in Mouse Xenograft Model (NSCLC A549) was examined. […] 43 days after the initial tumor inoculation, tumors were dissected from the mice of each group and their weights were measured using a scale. […]

[4] = system: human MM cell lines (mesothelioma cells); test: Combination treatment with chemotherapies, MTS proliferation assay, mesothelioma cells; format: cell-based; conditions: 72 hours, Combination Index
Description: (§5) Another assay for determining the number of viable cells in proliferation or cytotoxicity assays is the MTS assay, a colorimetric method. MTS assay reagents are commercially available (Promega Corp., Madison, Wis.). The reagent contains a tetrazolium compound [3-(4,5-dimethylthiazol-2-yl)-5-(3-carboxymethoxyphenyl)-2-(4-sulfophenyl)-2H-tetrazolium, inner salt; MTS] and an electron coupling reagent (phenazine ethosulfate; PES). PES has enhanced chemical stability, which allows it to be combined with MTS to form a stable solution. The MTS tetrazolium compound (Owen's reagent) is bioreduced by cells into a colored formazan product that is soluble in tissue culture medium. This conversion may be accomplished by NADPH or NADH produced by dehydrogenase enzymes in metabolically active cells. The quantity of formazan product as measured by the absorbance at 490 nm is directly proportional to the number of living cells in culture. Because the MTS formazan product is soluble in tissue culture medium, this assay requires fewer steps than procedures that use tetrazolium compounds such as MTT. The formazan product of MTT reduction is a crystalline precipitate that requires an additional step in the procedure to dissolve the crystals before recording absorbance readings at 570 nm.
(§6) Combination treatments of the Compounds with several chemotherapies: erlotinib (Tarceva®), PI3K inhibitor LY294002, TGFβ inhibitor SB431542, and pemetrexed (Alimta®) were performed in human NSCLC and MM cell lines (FIGS. 12-17). In all experiments, NSCLC and MM cell lines were treated with different doses of each compound or combination for 72 hours, and MTS assays were performed to determine the cell proliferations. Combination Index (CI), calculated by CalcuSyn software (Biosoft, Cambridge, UK), was applied to describe the effect of the combination effects of two compounds, where CI<1 indicates Synergism, CI=1 indicates Additive effects, and CI>1 indicates Antagonism. Student's t-tests were applied for statistical analysis.

[5] = Additional toxicity study: body weight at different doses; format: in vivo, mouse; conditions: i.p. 25, 50, and 100 mg/kg body weight for 6 consecutive days
Experimental: Each dosing group contained 3 mice. The body weight of mice was measured using a scale. Results are the means±SD (error bars).
as §3

human NSCLC cell lines = test: Combination treatment with chemotherapies, MTS proliferation assay, lung cancer cells; format: cell-based; conditions: 72 hours, Combination Index
Description: as §5, §6

Row | SMILES | tumor growth (melanoma MelJuso) | tumor weight (FIG. 1) (melanoma MelJuso) | changes of leukocyte population [1] | loss of body weight [1] | toxicity in organs (H&E histology) [2] | tumor weight compared to the control group (mesothelioma MS-1) | expression of the key indicator of the canonical Wnt activation (Wnt signaling pathway) | Hh signaling (expression of Gli1, Gli2, Gli3, HHIP, Cyclin D1) [3] | tumor weight compared to the control group (NSCLC A549) | combination effect with erlotinib (Tarceva) [4] | loss of body weight [5] | combination effect with erlotinib (Tarceva) (human NSCLC cell lines) | combination effect with PI3K inhibitor LY294002 [4] | combination effect with pemetrexed (Alimta) [4] | combination effect with PI3K inhibitor LY294002 (human NSCLC cell lines) | combination effect with TGFβ inhibitor SB431542 (human NSCLC cell lines)
1 | CC(C)(CO)CCCNC(=O)C1C(c2ccccc2)=NN(c2ccccc2)C1c1ccsc1 (stereo not drawn) [Compound 1, 1,3-diphenyl-5-thiophen-3-yl-4,5-dihydro-1H-pyrazole-4-carboxylic acid (5-hydroxy-4,4-dimethyl-pentyl)-amide] | dramatically suppressed | significantly decreased | No noticeable changes of leukocyte population | No noticeable changes of leukocyte population or loss of the body weight | No noticeable toxicity | decreased | significantly down-regulated | inhibited | decreased |  |  |  |  |  |  | 
2 | O=C(NCc1ccc(O)cc1)C1C(c2ccccc2)=NN(c2ccccc2)C1c1ccccc1 (stereo not drawn) [Compound 2, 1,3,5-triphenyl-4,5-dihydro-1H-pyrazole-4-carboxylic acid 4-hydroxy-benzylamide] | dramatically suppressed | significantly decreased | No noticeable changes of leukocyte population | No noticeable changes of leukocyte population or loss of the body weight | No noticeable toxicity |  | significantly down-regulated | inhibited |  |  |  |  |  |  |  | 
3 | CCCC1C(C(=O)NCCCC(C)(C)CO)C(c2ccc(F)cc2)=NN1c1ccccc1 (stereo not drawn) [Compound 4, 3-(4-fluoro-phenyl)-1-phenyl-5-propyl-4,5-dihydro-1H-pyrazole-4-carboxylic acid (5-hydroxy-4,4-dimethyl-pentyl)-amide] | dramatically suppressed | significantly decreased | No noticeable changes of leukocyte population | No noticeable changes of leukocyte population or loss of the body weight | No noticeable toxicity | decreased | significantly down-regulated | inhibited | decreased | synergy | no noticeable loss of the body weight | synergy |  |  |  | 
4 | CC(C)(CO)CCCNC(=O)C1C(c2ccc(F)cc2)=NN(c2ccccc2)C1c1cccc(F)c1 (stereo not drawn) [Compound 6, 3-(4-fluoro-phenyl)-5-(3-fluoro-phenyl)-1-phenyl-4,5-dihydro-1H-pyrazole-4-carboxylic acid (5-hydroxy-4,4-dimethyl-pentyl)-amide] | dramatically suppressed | significantly decreased | No noticeable changes of leukocyte population | No noticeable changes of leukocyte population or loss of the body weight | No noticeable toxicity |  |  | inhibited |  |  | no noticeable loss of the body weight |  | synergy | synergy | synergy | synergy
